Reference: patent publication US11661404B2, “Prodrug compounds activated by AKR1C3 and their use for treating hyperproliferative disorders” (priority 2018, dated 2023)
Read-outs that look alike come from different tables or passages of the source.

Experiments:
[1] = test system: wild-type HCT116 colon cancer cells; assay: Anti-proliferative IC50 assay (SRB), wild-type HCT116; type: cell-based, human
From the text: (§1) The cellular cytotoxicity of compounds of the invention resulting from AKR1C3-dependent metabolism of the compounds can readily be observed in anti-proliferative IC50 testing in isogenic cell lines that have been engineered to over-express human AKR1C3, relative to their wild-type counterparts that have been selected for their comparatively low levels of endogenous AKR1C3 expression (by Western blot analysis). The direct role of AKR1C3 in metabolism and cytotoxicity of the compounds is further supported for selected examples by repeat anti-proliferative experiments in the presence of a potent and selective small molecule inhibitor of AKR1C3, SN34037 (Flanagan et al., Bioorganic & Medicinal Chemistry (2014), 22(3), 967-977).
(§2) Four hundred cells were seeded in a volume of 100 μL in each well of a 96-well plate. The cells were left in a humidified incubator (37° C., 5% CO2) for 2 hours in order to enable attachment to the surface of the wells prior to compound addition. All compounds were prepared as stocks in DMSO and stored at −80° C. Frozen stocks of compounds were thawed immediately prior to addition to cells. Working solutions of each compound were made in α-MEM+5% FBS (v/v) at 3 times the required final concentration for the top well. The final concentration of DMSO in the α-MEM solution was ensured to not exceed 1% of the total volume. 50 μL of the working solution was added to the top wells (in duplicates) and gently mixed. The solubility of some compounds precluded the working solution in α-MEM to be 3 times the desired top well concentration. […] A 3-fold serial dilution was carried out along the plate starting from the top well. The first column of wells on the plate served as blanks (containing α-MEM+FBS) and the second column served as control wells (containing cells with no compound added). Following compound addition, the plates were incubated for 4 hours in a humidified incubator (37° C., 5% CO2).
(§3) Following the 4 hour compound exposure, the 96-well plates were washed three times by aspirating media with an Immuno Washer (Nunc) and each well replaced with 150 μL of α-MEM+5% (v/v) FBS+1% (v/v) P/S. The plates were left in a humidified incubator (37° C., 5% CO2) for 5 days to enable cell growth. The cells in 96-well plates were fixed 5 days after compound exposure by adding 50 μL of a 40% (w/v) trichloroacetic acid (TCA) solution so as to obtain a final TCA concentration of 10% in each well. The plates were left in the refrigerator (4° C.) for 1 hour and subsequently rinsed 3 times in tap water. Any excess water was left to drain and the cells were stained with 50 μL of 0.4% (w/v) sulforhodamine B (SRB). The plates with the SRB stain were left in the dark for 30 minutes. Excess stain was removed from the wells by rinsing the plates 4 times in water containing 1% (v/v) acetic acid. The stain was solubilised by adding 100 μL of 10 mM unbuffered Tris (pH 10.5) to each well and the plates were left in a shaker in a dark environment at room temperature for at least 1 hour. The absorbance values of the wells were determined by an ELx 808 Absorbance Microplate Reader (Bio-Tek Instruments, Winooski, Vt., USA), with the wavelength of the measurement filter set at 490 nm and a reference filter set at 450 nm. The absorbance of the reference filter was subtracted from the measurement filter to obtain a final absorbance of λ490-450 nm. The absorbance data was analysed and IC50 values determined by the KC4 microplate data analysis software (KC4™ V3.4, Bio-Tek).
(§4) Anti-proliferative IC50 assays were repeated as described above including the addition of 3 μM SN34037, a selective and potent small molecule inhibitor of AKR1C3.

[2] = test system: HCT116 colon cancer cells engineered to over-express AKR1C3; assay: Anti-proliferative IC50 assay (SRB), HCT116 over-expressing AKR1C3; type: cell-based, human; conditions: for IC50 Ratio WT:AKR1C3: HCT116-WT vs HCT116-AKR1C3
From the text: as §1, §2, §3, §4

[3] = test system: wild-type SNU398 hepatocellular carcinoma cells; assay: Anti-proliferative IC50 assay, wild-type SNU398; type: cell-based
Experimental: as §2, §3, §4
(§5) Materials and methods used are as described for Example 9. […] This is a surprising finding and considerably greater than the approximately 77-fold, 270-fold and 400-fold increase in sensitivity observed for PR-104A, SN33540 and SN34454, respectively. In all cases, this increase in cytotoxicity resulting from expression of AKR1C3 can be substantially reversed by addition of an AKR1C3 inhibitor (SN34037), directly implicating metabolism of the prodrugs by AKR1C3 in the observed increase in cytotoxicity. As an important control, introduction of SN34037 had no anti-proliferative effects in wild-type SNU398 cells treated with compounds of the invention.

[4] = test system: SNU398 hepatocellular carcinoma cells engineered to over-express AKR1C3; assay: Anti-proliferative IC50 assay, SNU398 over-expressing AKR1C3; type: cell-based, human
Experimental: as §2, §3, §4, §5

[5] = test system: wild-type H460 lung cancer cells; assay: Anti-proliferative IC50 assay, wild-type H460; type: cell-based, human
Experimental: as §2, §3, §4
Materials and methods used are as described for Example 9.

[6] = Homo sapiens, HCT-116, 4 hour exposure, 5 days growth, read-out: HCT116-WT IC50
[7] = with 3 μM SN34037, read-out: HCT116-WT + AKR1C3 Inhibitor IC50
[8] = Homo sapiens, HCT-116, 4 hour exposure, 5 days growth, read-out: HCT116-AKR1C3 IC50
[9] = with 3 μM SN34037, read-out: HCT116-AKR1C3 + AKR1C3 Inhibitor IC50
[10] = Homo sapiens, SNU-398; read-out: SNU398-WT Anti-proliferative IC50
[11] = Homo sapiens, SNU-398; with 3 μM SN34037; read-out: SNU398-WT +AKR1C3 Inhibitor Anti-proliferative IC50
[12] = Homo sapiens, SNU-398; read-out: SNU398-AKR1C3 Anti-proliferative IC50
[13] = Homo sapiens, SNU-398; with 3 μM SN34037; read-out: SNU398-AKR1C3 +AKR1C3 Inhibitor Anti-proliferative IC50
[14] = Homo sapiens, NCI-H460; read-out: H460-WT Anti-proliferative IC50
[15] = Homo sapiens, NCI-H460; with 3 μM SN34037; read-out: H460-WT +AKR1C3 Inhibitor Anti-proliferative IC50

SMILES	IC50 Ratio WT:AKR1C3 [2]	IC50 [1, 6] [µM]	IC50 [1, 7] [µM]	IC50 [2, 8] [µM]	IC50 [2, 9] [µM]	IC50 [3, 10] [µM]	IC50 [3, 11] [µM]	IC50 [4, 12] [µM]	IC50 [4, 13] [µM]	IC50 [5, 14] [µM]	IC50 [5, 15] [µM]	other results
CCN1CCN(S(=O)(=O)c2cc([N+](=O)[O-])ccc2N(CCOS(C)(=O)=O)CCOS(C)(=O)=O)CC1 [Compound 642, ((2-((4-ethylpiperazin-1-yl)sulfonyl)-4-nitrophenyl)azanediyl)bis(ethane-2,1-diyl) dimethanesulfonate]	1930	–	–	–	–	–	–	–	–	–	–	IC50 ([1]; Homo sapiens, HCT-116, read-out: HCT116-WT IC50): 1.93 µM; IC50 ([1]; read-out: HCT116-WT + AKR1C3 Inhibitor IC50, with 3 μM SN34037): 2.37 µM; IC50 ([2]; Homo sapiens, HCT-116, read-out: HCT116-AKR1C3 IC50): 0.001 µM; IC50 ([2]; read-out: HCT116-AKR1C3 + AKR1C3 Inhibitor IC50, with 3 μM SN34037): 0.828 µM; IC50 ([3]; Homo sapiens, SNU-398, read-out: SNU398-WT +AKR1C3 Inhibitor Anti-proliferative IC50): 12.1 µM; IC50 ([3]; Homo sapiens, SNU-398, read-out: SNU398-WT Anti-proliferative IC50): 10.3 µM; IC50 ([4]; Homo sapiens, SNU-398, read-out: SNU398-AKR1C3 +AKR1C3 Inhibitor Anti-proliferative IC50): 1.28 µM; IC50 ([4]; Homo sapiens, SNU-398, read-out: SNU398-AKR1C3 Anti-proliferative IC50): 0.002 µM; IC50 ([5]; Homo sapiens, NCI-H460, read-out: H460-WT +AKR1C3 Inhibitor Anti-proliferative IC50): 2.24 µM; IC50 ([5]; Homo sapiens, NCI-H460, read-out: H460-WT Anti-proliferative IC50): 0.001 µM
CS(=O)(=O)OCCN(CCOS(C)(=O)=O)c1ccc([N+](=O)[O-])cc1S(=O)(=O)N1CCNCC1 [Compound 640, ((4-nitro-2-(piperazin-1-ylsulfonyl)phenyl)azanediyl)bis(ethane-2,1-diyl) dimethanesulfonate]	469	4.22	4.1	0.009	2.06	8.47	8.49	0.026	6.54	0.027	5.88	–
CS(=O)(=O)OCCN(CCOS(C)(=O)=O)c1ccc([N+](=O)[O-])cc1S(=O)(=O)N1CCN(CC(O)CO)CC1 (stereo not drawn) [Compound 644, ((2-((4-(2,3-dihydroxypropyl)piperazin-1-yl)sulfonyl)-4-nitrophenyl)azanediyl)bis(ethane-2,1-diyl) dimethanesulfonate]	978	107	112	0.109	47	73.8	68.4	0.262	63.7	0.387	88.3	–
